Experiment [1] has as its target T1, oleate desaturase (OD) (Trypanosoma brucei, UniProt Q6UCJ6).
T1 construct: native full-length enzyme in intact T. brucei cells
T1 sequence (Q6UCJ6 1-408): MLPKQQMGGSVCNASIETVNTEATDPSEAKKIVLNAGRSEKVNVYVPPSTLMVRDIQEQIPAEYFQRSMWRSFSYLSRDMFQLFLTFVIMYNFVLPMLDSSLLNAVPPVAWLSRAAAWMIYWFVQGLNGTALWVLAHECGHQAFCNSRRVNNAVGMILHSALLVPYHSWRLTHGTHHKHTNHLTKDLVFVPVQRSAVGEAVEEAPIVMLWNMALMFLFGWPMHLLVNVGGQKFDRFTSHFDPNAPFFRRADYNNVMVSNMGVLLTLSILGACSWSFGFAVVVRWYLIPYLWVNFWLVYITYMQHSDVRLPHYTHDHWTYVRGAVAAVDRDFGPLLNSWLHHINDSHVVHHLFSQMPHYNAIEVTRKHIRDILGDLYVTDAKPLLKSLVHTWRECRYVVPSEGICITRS
Put plainly: whole-cell […]-oleate desaturation, argentation-TLC and scintillation counting. The format is cell-based. To be noted: intact bloodstream-form cells; 50 µM 13-TS, 30 min preincubation, 60 min with [14C]-oleate; may act as a metabolite of the added acid.

Experiment [2] has as its target T2, stearoyl-CoA desaturase (SCD) (Trypanosoma brucei, UniProt Q57YK1).
T2 construct: gene Tb08.11J15.870; native enzyme in intact bloodstream-form cells; carries a cytochrome b-like domain
T2 sequence (Q57YK1 1-431): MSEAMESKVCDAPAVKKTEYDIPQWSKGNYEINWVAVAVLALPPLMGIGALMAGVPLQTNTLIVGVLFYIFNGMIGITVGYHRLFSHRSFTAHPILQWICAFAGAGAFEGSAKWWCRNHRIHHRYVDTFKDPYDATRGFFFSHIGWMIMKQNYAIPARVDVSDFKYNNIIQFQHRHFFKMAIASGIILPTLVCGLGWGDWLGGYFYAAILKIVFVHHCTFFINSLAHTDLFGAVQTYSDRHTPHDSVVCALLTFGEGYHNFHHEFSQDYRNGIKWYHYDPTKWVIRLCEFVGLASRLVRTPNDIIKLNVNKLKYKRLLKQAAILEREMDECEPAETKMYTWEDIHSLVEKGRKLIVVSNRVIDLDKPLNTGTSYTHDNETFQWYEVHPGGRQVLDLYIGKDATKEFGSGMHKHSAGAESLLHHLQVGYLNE
The experiment can be described thus: whole-cell […]-stearate desaturation, argentation-TLC and scintillation counting. The format is cell-based. To be noted: intact bloodstream-form cells; 50 µM 13-TS, 30 min preincubation, 60 min with [14C]-stearate; may act as a metabolite of the added acid.

This is an account of results in publication PMC2997783, “Genetic and Chemical Evaluation of Trypanosoma brucei Oleate Desaturase as a Candidate Drug Target” (PLoS ONE, 2010).

Take `CCCCCSCCCCCCCCCCCC(=O)O` [13-TS, 13-thiastearic acid]: in experiment [1], the “% conversion of oleate to linoleate with 50 μM inhibitor (control 20.4%)” value turned out to be 7.7%. Also, in experiment [2], the “% conversion of stearate to oleate with 50 μM inhibitor (control 23.1%)” value was determined as 19%.
